The text below walks through data of publication PMC10897374, “Synthetic angiotensin II peptide derivatives confer protection against cerebral and severe non-cerebral malaria in murine models” (Scientific Reports, 2024).

Series [1] relates to mouse muscle tissue. The note with it: cited from earlier work.
Series [2] deals with Plasmodium berghei ANKA. In words: Experimental cerebral malaria (ECM) model: parasitemia and survival. Format: in vivo, C57BL/6 mice. As for the experimental part: Six- to eight-week-old male C57BL/6 mice were provided by the Oswaldo Cruz Foundation (FIOCRUZ—Rio de Janeiro, Brazil). The mice were housed in appropriate cages with free access to food and fresh water in a room with controlled temperature (22–24 °C) with a light/dark cycle of 12 h.
(§1) A cryopreserved sample of erythrocytes infected with P. berghei ANKA (kindly provided by Dr. Leonardo J. Carvalho, La Jolla University, San Diego, CA) was thawed and 1 × 10^6 erythrocytes infected with P. berghei ANKA were injected intraperitoneally (i.p.) in the C57BL/6 mice. Parasitemia was monitored from the prepatent period until parasitemia was sufficient for infection of the experimental animal groups (7 male mice per group), i.e., 5–8% parasitemia per mL of blood (injection of 200 µL in each mouse).
The same protocol was performed with 6- to 8-week-old BALB/c mice also provided from FIOCRUZ (8 male mice per group). Each group was treated one hour before infection (day zero) i.p. at 100 ng Kg^−1 for five consecutive days. The dose used was similar to that used for Ang II in in vivo studies, as described by Gallego-Delgado et al., 2015. […] After 3 days, parasitemia was evaluated by blood smear from a droplet of blood collected from the lateral tail vein of each animal and colored with the hematological Diff-Quick® kit. The survival of the animals was also monitored daily. […]

Series [3] has as its system Plasmodium berghei ANKA. In words: Severe non-cerebral malaria model: parasitemia and survival. It is filed as in vivo. The note with it: BALB/c mice. As for the experimental part:
as §1
The same protocol was performed with 6- to 8-week-old BALB/c mice also provided from FIOCRUZ (8 male mice per group). […] After 3 days, parasitemia was evaluated by blood smear from a droplet of blood collected from the lateral tail vein of each animal and colored with the hematological Diff-Quick® kit. The survival of the animals was also monitored daily. […]
C57BL/6 (cerebral malaria model) and BALB/c (non-cerebral malaria model) mice received a single daily dose (100 ng Kg^−1 min^−1) of Ang II (brown line), Ang II-SS (orange line), VIPF (blue line), or vehicle (PBS, black line) for 5 days. […] Parasitemia was monitored by Diff-Quick stained blood smears from day 3 to day 7 for C57BL/6 mice (A) and from day 3 to day 9 for BALB/c mice (B). Percentage of survival for C57BL/6 mice (C) and BALB/c mice (D) mice was monitored daily starting on day 6 p.i. […]

Series [4] deals with C57BL/6 mice infected with P. berghei ANKA. In words: SHIRPA behavioral tests in the ECM model. It is filed as in vivo, mouse. The note with it: day 5 post-infection, difference of scores before and after infection, vs vehicle (PBS). An excerpt: C57BL/6 mice were used for the experimental cerebral malaria model, and the assays were defined by the presence of at least two of the following clinical signs of neurological involvement: ataxia, paralysis of the limbs, poor correction reflex, convulsions, and coma. A series of SHIRPA tests (SmithKline Beecham, Harwell, Imperial College, Royal London Hospital, phenotype assessment) was used to evaluate behavioral, motor, and neurological changes during the development of the P. berghei infection. Tests aimed at evaluating cognitive and behavioral parameters were selected to assess brain impairment of the mice. The tests described below were initially performed on animals not yet infected at day 0. Next, the mice were treated and infected as described earlier. Five days after infection, the tests were repeated and the results were expressed as the difference between the sum of the scores before and after infection with P. berghei. […]
After five minutes of the test described above, the animals were transferred to the arena without being touched. The observation of the immediate reactions to the new environment was recorded for thirty seconds and a score was assigned.
While mice were still in the arena, the number of squares of 11 cm^2 of the arena that the animal stepped into with four legs at the same time was quantified for thirty seconds. […]

The subject of series [5] is Plasmodium. The note with it: same mouse model (ECM), infected mice treated with the ACE inhibitor; cited from earlier work.

Where a SMILES comes first, the peptide text is derived from it. Bridges are numbered along the chain shown (N, C = ends). Where no end group is shown, it is not given here.

`CC[C@H](C)[C@H](NC(=O)[C@@H](N)C(C)C)C(=O)N1CCC[C@H]1C(=O)N[C@@H](Cc1ccccc1)C(=O)O` [VIPF] (H-VIPF-OH): the contractile activity result in series [1] is “did not elicit significant contractile activity”.

For the compound “CDRVYIHPFC (disulfide 1-10 (inferred)) [Ang II-SS, disulfide bridge-constrained derivative of Ang II]”, the mouse survival result in series [2] (C57BL/6 mice (ECM), 100 ng Kg−1 min−1 i.p. daily for 5 days, Kaplan–Meier, log rank vs vehicle, n = 8) is given as “increased mouse survival”; in series [3] (100 ng Kg−1 min−1 i.p. daily for 5 days, Kaplan–Meier, log rank vs vehicle, n = 8), “increased mouse survival”. For the same compound, the “parasitemia level at day 7 p.i.” value in series [2] (C57BL/6 mice, 100 ng Kg−1 min−1 i.p. daily until day 4 p.i., first dose 1 h before infection, blood smear, vehicle group reached 18% parasitemia) was “approximately 10%”. In series [3] (100 ng Kg−1 min−1 i.p. daily until day 4 p.i., blood smear day 3 to 9 p.i., especially at day 9 p.i., vs vehicle), the effect on parasitemia entry is given as “reduced parasitemia”. Further, in series [1], the contractile activity entry is recorded as “did not elicit significant contractile activity”. For the same compound, in series [4], the SHIRPA behavioral score entry is recorded as “reduced the SHIRPA behavioral score”.

For `C[C@H](CS)C(=O)N1CCC[C@H]1C(=O)O` [captopril], the effect on parasitemia entry in series [5] is recorded as “discrete but significant reduction in parasitemia”.
